Patent publication US12351559B2 (Biohaven Therapeutics Ltd., priority 2014, dated 2025)

Target: T1, Kv7.2/7.3 (Homo sapiens, UniProt O43525+O43526)
T1 construct: host or cells: HEK cells, tetracycline-inducible expression
Test: Kv7.2/7.3 activation assay, QPatch planar patch-clamp, single concentration screen
Assay type: cell-based
Set-up: key: <1.2-fold increase over baseline (−); +/−: as a range from <1.2-fold increase over baseline (−) up to >6-fold increase over baseline (+++); as a range from <1.2-fold increase over baseline (−) up to >6-fold increase over baseline (+++); as a range from <1.2-fold increase over baseline (−) up to >6-fold increase over baseline (+++); >6-fold increase over baseline (+++)
Details: Kv7.2/Kv7.3 co-expressing HEK cells, compound 3 μM, steady-state current at end of 2 s pulse to −30 mV
Method: The ability of compounds to potentiate K-currents in Kv7.2/7.3 containing HEK cells was assessed using planar patch-clamp on the QPatch automated screening platform.
Cell Line: The hKv7.2/7.3 cell line was obtained from Chantest (Cleveland, OH 44128) cat. #CT6147. These HEK cells will express the Kv7.2/7.3 ion channels when induced.
Cell Culture: Cells were maintained in a media containing DMEM/F12; 50/50 (GIBCO cat. #11330), 10% Fetal Bovine Serum (FBS) (GIBCO cat. #26140), 100 units/mL Penicillin-Streptomycin (GIBCO cat. #15140), 0.005 mg/mL Blasticidin (INVIVOGEN cat. #ant-bl-1), 0.5 mg/mL Geneticin (GIBCO cat. #10131), 0.1 mg/ml Zeocin (GIBCO cat. #R25001). Cells used in the electrophysiology assay were maintained in a media without Blasticidin, Geneticin and Zeocin for 2 days and channel expression was induced by adding tetracycline (BIOLINE cat. #BIO-87030) at a final concentration of 1 mg/mL. Cells were grown in T-175 flask to ˜75% confluency. Currents were recorded 24 hours after channel induction.
Compound Plates: Test compounds were prepared by performing serial dilutions on a Biomek NX^P (BECKMAN COULTER). Final dilutions were made in external recording solution with a final DMSO concentration of 0.1% DMSO. For single concentration screens each plate had 10 μM retigabine as a positive control and 0.1% DMSO as a negative control.
Electrophysiology: On the day of the experiment cells were washed with Hank's Balanced Salt Solution (HBBS) (GIBCO cat. #14175) and harvested with Tryple (GIBCO cat. #12604). Cells were then centrifuged at 2000 rpm for 5 minutes and resuspended in CHO-S-SFM (GIBCO cat. #12052) at ˜3×10^6 cells/mL. Cells were stirred for 30 minutes before experiments were started. External recording solution contained (in mM): NaCl (145), KCl (4), CaCl2 (2), MgCl2 (1), HEPES (10) and Glucose (10); pH was adjusted to 7.4 with NaOH and the osmolarity was adjusted to 300-305 mOsM with sucrose if necessary. Internal solution contained (in mM): KCl (125), KF (10), EGTA (5), Na2ATP (5), MgCl2 (3.2), HEPES (5); pH was adjusted to 7.2 with KOH and the osmolarity was adjusted to 298-302 mOsM with sucrose.
Potassium channel activity was measured on the QPatch HTX (Sophion Bioscience) using QPlates with 48-wells/plate. Each cell was taken as an independent experiment and only one compound was tested per well. Potassium channel activity was elicited by holding at −80 mV and stepping to −30 mV for 2 s followed by a 100 ms pulse to −120 mV.
Single concentration screen: Baseline conditions were obtained by recording 5 sweeps in the external solution only, this was repeated for three applications of the external solution. […] The steady-state current at the end of the 2 s pulse to −30 mV was measured to determine the fold increase from baseline.

Row | SMILES | Kv7.2/7.3 Activity: increase in current over baseline
1 | CC(C)(C)CC(=O)Nc1nc2ccc(Cl)cc2n1C1CCC1 [Example 60, N-(6-chloro-1-cyclobutyl-1H-benzo[d]imidazol-2-yl)-3,3-dimethylbutanamide] | +
2 | O=C(CC1(O)CCC1)Nc1nc2ccc(Cl)cc2n1C1CCC1 [Example 62, N-(6-chloro-1-cyclobutyl-1H-benzo[d]imidazol-2-yl)-2-(1-hydroxycyclobutyl)acetamide] | +
3 | CC(C)(C)CC(=O)Nc1nc2ccc(Br)cc2n1C1CCC1 [Example 63, N-(6-bromo-1-cyclobutyl-1H-benzo[d]imidazol-2-yl)-3,3-dimethylbutanamide] | ++
4 | CC(C)c1ccc2nc(NC(=O)CC(C)(C)C)n(C3CCC3)c2c1 [Example 64, N-(1-cyclobutyl-6-isopropyl-1H-benzo[d]imidazol-2-yl)-3,3-dimethylbutanamide] | ++
5 | CC(C)c1ccc2nc(NC(=O)[C@@H](C)C(C)C)n(C3CCC3)c2c1 [Example 65, (S)—N-(1-cyclobutyl-6-isopropyl-1H-benzo[d]imidazol-2-yl)-2,3-dimethylbutanamide] | +
6 | CC(C)(C)CC(=O)Nc1nc2ccc(C(F)F)cc2n1C1CCC1 [Example 66, N-(1-cyclobutyl-6-(difluoromethyl)-1H-benzo[d]imidazol-2-yl)-3,3-dimethylbutanamide] | ++
7 | COC(=O)c1cccc2nc(NC(=O)CC(C)(C)C)n(C3CCC3)c12 [Example 67, methyl 1-cyclobutyl-2-(3,3-dimethylbutanamido)-1H-benzo[d]imidazole-7-carboxylate] | +/−
8 | CC(C)(C)CC(=O)Nc1nc2cccc(CO)c2n1C1CCC1 [Example 68, N-(1-cyclobutyl-7-(hydroxymethyl)-1H-benzo[d]imidazol-2-yl)-3,3-dimethylbutanamide] | +
9 | Cc1cc(-n2c(NC(=O)CC(C)(C)C)nc3ccc(C#N)cc32)on1 [Example 69, N-(6-cyano-1-(3-methylisoxazol-5-yl)-1H-benzo[d]imidazol-2-yl)-3,3-dimethylbutanamide] | +
10 | C[C@@](O)(CC(=O)Nc1nc2ccc(C#N)cc2n1-c1ccc(F)cc1)c1ccccc1 [Example 70, (R)-N-(6-cyano-1-(4-fluorophenyl)-1H-benzo[d]imidazol-2-yl)-3-hydroxy-3-phenylbutanamide] | +/−
11 | C[C@H](C(=O)Nc1nc2ccc(C#N)cc2n1-c1ccc(F)cc1)C(C)(C)C [Example 71, (S)-N-(6-cyano-1-(4-fluorophenyl)-1H-benzo[d]imidazol-2-yl)-2,3,3-trimethylbutanamide] | +
12 | CC(C)(C(=O)Nc1nc2ccc(C#N)cc2n1C1CCC1)C(O)c1ccccc1 (stereo not shown) [Example 72, N-(6-cyano-1-cyclobutyl-1H-benzo[d]imidazol-2-yl)-3-hydroxy-2,2-dimethyl-3-phenylpropanamide] | +/−
13 | CC(C)[C@H](C)C(=O)Nc1nc2ccc(C#N)cc2n1-c1ccc(F)cn1 [Example 73, (S)-N-(6-cyano-1-(5-fluoropyridin-2-yl)-1H-benzo[d]imidazol-2-yl)-2,3-dimethylbutanamide] | +/−
14 | CC(C)(C)CC(=O)Nc1nc2ccc(C#N)cc2n1-c1ccc(F)cn1 [Example 74, N-(6-cyano-1-(5-fluoropyridin-2-yl)-1H-benzo[d]imidazol-2-yl)-3,3-dimethylbutanamide] | +
15 | C[C@H](C(=O)Nc1nc2ccc(C#N)cc2n1-c1ccc(F)cn1)C(C)(C)C [Example 75, (S)-N-(6-cyano-1-(5-fluoropyridin-2-yl)-1H-benzo[d]imidazol-2-yl)-2,3,3-trimethylbutanamide] | ++
16 | C[C@@H](C(=O)Nc1nc2ccc(C#N)cc2n1C1CCC1)C(C)(C)C [Example 76, (R)-N-(6-cyano-1-cyclobutyl-1H-benzo[d]imidazol-2-yl)-2,3,3-trimethylbutanamide] | +
17 | CC(C(=O)Nc1nc2ccc(C#N)cc2n1C1CCC1)C(C)(C)C (stereo not shown) [Example 77, N-(6-cyano-1-cyclobutyl-1H-benzo[d]imidazol-2-yl)-2,3,3-trimethylbutanamide] | +
18 | CC(O)(CC(=O)Nc1nc2ccc(C#N)cc2n1C1CCC1)C1CCC1 (stereo not shown) [Example 78, N-(6-cyano-1-cyclobutyl-1H-benzo[d]imidazol-2-yl)-3-cyclobutyl-3-hydroxybutanamide] | +
19 | C[C@](O)(CC(=O)Nc1nc2ccc(C#N)cc2n1-c1ccc(F)cn1)c1ccccc1 [Example 79, (S)-N-(6-cyano-1-(5-fluoropyridin-2-yl)-1H-benzo[d]imidazol-2-yl)-3-hydroxy-3-phenylbutanamide] | +
20 | C[C@H](C(=O)Nc1nc2ccc(C(C)(C)O)cc2n1C1CCC1)C(C)(C)C [Example 86, (S)-N-(1-cyclobutyl-6-(2-hydroxypropan-2-yl)-1H-benzo[d]imidazol-2-yl)-2,3,3-trimethylbutanamide] | +++ (>6-fold increase over baseline (+++))

Results, then the molecule that gave them:

Row | Kv7.2/7.3 Activity: increase in current over baseline | SMILES
21 | + | CC(O)(CC(=O)Nc1nc2ccc(C#N)cc2n1C1CCC1)C1CCCC1 (stereo not shown) [Example 80, N-(6-cyano-1-cyclobutyl-1H-benzo[d]imidazol-2-yl)-3-cyclopentyl-3-hydroxybutanamide]
22 | + | N#Cc1ccc2nc(NC(=O)CC3(O)CCCC3)n(C3CCC3)c2c1 [Example 81, N-(6-cyano-1-cyclobutyl-1H-benzo[d]imidazol-2-yl)-2-(1-hydroxycyclopentyl)acetamide]
23 | +/− | CC(C)(C)CC(=O)Nc1nc2cccc(C(C)(C)O)c2n1C1CCC1 [Example 82, N-(1-cyclobutyl-7-(2-hydroxypropan-2-yl)-1H-benzo[d]imidazol-2-yl)-3,3-dimethylbutanamide]
24 | ++ | CC1(C)CCC[C@@H](CC(=O)Nc2nc3ccc(C(C)(C)O)cc3n2C2CCC2)O1 [Example 83, (S)-N-(1-cyclobutyl-6-(2-hydroxypropan-2-yl)-1H-benzo[d]imidazol-2-yl)-2-(6,6-dimethyltetrahydro-2H-pyran-2-yl)acetamide]
25 | + | CC(C)(O)c1ccc2nc(NC(=O)C[C@](C)(O)c3ccccc3)n(C3CCC3)c2c1 [Example 84, (S)-N-(1-cyclobutyl-6-(2-hydroxypropan-2-yl)-1H-benzo[d]imidazol-2-yl)-3-hydroxy-3-phenylbutanamide]
26 | +/− | CC(C)(O)CC(=O)Nc1nc2ccc(C(C)(C)O)cc2n1C1CCC1 [Example 85, N-(1-cyclobutyl-6-(2-hydroxypropan-2-yl)-1H-benzo[d]imidazol-2-yl)-3-hydroxy-3-methylbutanamide]
27 | ++ | CC(C)(O)c1ccc2nc(NC(=O)C3CC4(CCC4)C3)n(C3CCC3)c2c1 [Example 87, N-(1-cyclobutyl-6-(2-hydroxypropan-2-yl)-1H-benzo[d]imidazol-2-yl)spiro[3.3]heptane-2-carboxamide]
28 | + | C[C@](O)(CC(=O)Nc1nc2ccc(C(F)(F)F)cc2n1C1CCC1)c1ccccc1 [Example 88, (S)-N-(1-cyclobutyl-6-(trifluoromethyl)-1H-benzo[d]imidazol-2-yl)-3-hydroxy-3-phenylbutanamide]
